Measured values taken from patent publication US12036270B2, “Method for immunomodulation of using aza-podophyllotoxin derivatives” (Sistema Universitario Ana G. Mendez, priority 2015, dated 2024).
Several values for one entry are separate records, joined by “and”; a condition that tells them apart may be missing. Equal entries are not always repeated.

System: mouse splenocytes
Test: in vitro stimulation of mouse splenocytes/lymphocytes, cytokine release measured in supernatant by protein microarray chip
Type: cell-based
Settings: for IL-6 produced: Example 1 and b94-b99; for GCSF levels: Example 2 and b94-b99; for cytokine milieu (TH1/TH2/TH17 bias): profile of AP-treated mouse splenocytes
Experimental: A total of 2×10^5 mouse splenocytes per well were cultured in a humidified atmosphere at 37° C. and 5% CO2 in round-bottomed 96-well culture plates for five days with the AP compounds […]. Concanavalin A ([…]) and culture media were used as positive and negative controls, respectively. Plates were centrifuged at 1,200 RPM for five minutes, and supernatants were collected. The resulting cytokine profile produced after lymphocyte stimulation was analyzed using a fluorescently-labeled protein microarray chip as indicated by the manufacturer (RayBiotech, Norcross, Ga., USA).
The immunomodulatory effect of the AP compounds was assessed by in vitro stimulation of mouse lymphocytes for five days.

[1] = mouse splenocytes, five days, listed as AP-102
[2] = mouse splenocytes, five days, listed as AP-103
[3] = mouse splenocytes, five days, listed as AP-311
[4] = mouse splenocytes, five days, listed as AP-312

| Compound | IL-12 (IL-12p70) induced (mouse splenocytes, five days) | IL-6 produced (mouse splenocytes, five days) | GCSF levels (mouse splenocytes, five days) | G-CSF induced (summary / preliminary data) (mouse splenocytes, five days) [pg/mL] | IL-6 induced (summary / preliminary data) (mouse splenocytes, five days) [pg/mL] | cytokine milieu (TH1/TH2/TH17 bias) | IL-1b induced (mouse splenocytes, five days) [pg/mL] | IL-23 induced (mouse splenocytes, five days) | IL-15 induced (mouse splenocytes, five days) | further results |
| --- | --- | --- | --- | --- | --- | --- | --- | --- | --- | --- |
| COc1ccc(C2C3=C(COC3=O)N(CCO)c3cc4c(cc32)OCO4)cc1OC (stereo not drawn) [AP102] | 29 pg/mL | 257 pg/mL | 736 pg/mL | 2208 | 772 | highest TH17 cytokine biased, followed by a close TH2 biased and a smaller TH1 cytokine milieu | – | – | – | IL-2 induced (mouse splenocytes, five days): 17 pg/mL; IL-17 induced (mouse splenocytes, five days): 294 pg/mL; IL-6 produced [1]: 257.35 pg/mL; GCSF levels [1]: 735.83 pg/mL; IL-2 induced [1]: 17.36 pg/mL; IL-12 (IL-12p70) induced [1]: 29.09 pg/mL |
| COc1cccc(C2C3=C(COC3=O)N(CCO)c3cc4c(cc32)OCO4)c1 (stereo not drawn) [AP103] | 21 pg/mL | 375 pg/mL | 858 pg/mL | 2575 | 1125 | high TH2-type cytokines, but equally comparably low TH1 and TH2 | 3.95 | – | – | IL-6 produced [2]: 535.06 pg/mL; GCSF levels [2]: 858.15 pg/mL; IL-12 (IL-12p70) induced [2]: 35.70 pg/mL |
| O=C1OCC2=C1C(c1ccccc1)c1cc3c(cc1N2CCO)OCO3 (stereo not drawn) [AP104] | 22 pg/mL | 261 pg/mL and 260.85 pg/mL | 690 pg/mL and 690.39 pg/mL | 2071 | 782 | high TH2-type cytokines, but equally comparably low TH1 and TH2 | – | 58 pg/mL and 58.48 pg/mL | – | IFN-gamma induced (mouse splenocytes, five days): 104.58 pg/mL; IL-2p70 induced (so in the source) (mouse splenocytes, five days): 21.99 pg/mL; IL-10 induced (mouse splenocytes, five days): 14 pg/mL and 13.78 pg/mL |
| COc1cc(C2C3=C(COC3=O)N(CCO)c3cc4c(cc32)CCC4)cc(OC)c1O (stereo not drawn) [AP205] | 60 pg/mL and 60.14 pg/mL | 1445 pg/mL and 1444.71 pg/mL | 2336 pg/mL and 2336.49 pg/mL | 7166 | 4351 | high TH2-type cytokines, but equally comparably low TH1 and TH2 | 19.45 | 80 pg/mL and 79.96 pg/mL | 94 pg/mL and 94.04 pg/mL | IL-1a induced (mouse splenocytes, five days): 20 pg/mL and 20.29 pg/mL; IL-9 induced (mouse splenocytes, five days): 30 pg/mL and 30.45 pg/mL |
| COc1ccc(C2C3=C(COC3=O)N(CCO)c3cc4c(cc32)OCCO4)c(OC)c1OC (stereo not drawn) [AP311] | – | 184 pg/mL | – | – | 551 | strong TH2 cytokine milieu, followed by a TH17, and a smaller TH1 cytokine profile | – | 27 pg/mL | 56 pg/mL | IL-6 produced [3]: 183.76 pg/mL; IL-23 induced [3]: 26.66 pg/mL |
| COc1cccc(C2C3=C(COC3=O)N(CCO)c3cc4c(cc32)OCCO4)c1OC (stereo not drawn) [AP312] | 13 pg/mL | 270 pg/mL | – | – | 810 | strong TH2 cytokine milieu, followed by a TH17, and a smaller TH1 cytokine profile | 11.89 | – | – | IL-6 produced [4]: 269.89 pg/mL; IL-12 (IL-12p70) induced [4]: 27.89 pg/mL |
